Patent US20250206759A1, “FUSED RING COMPOUND, PHARMACEUTICAL COMPOSITION CONTAINING SAME, AND USE OF FUSED RING COMPOUND” (CHENGDU HYPERWAY PHARMACEUTICALS CO., LTD., priority 2022, published 2025)
Where two headings read alike, the source gives them in different places.

Assay: Pharmacokinetics of compounds in rats (oral)
Format: in vivo, SD rats
Details: male SD rats
Description: Male SD rats were purchased from Shanghai SIPPR-Bk Lab Animal Co., Ltd. Each test compound was administered orally (3 rats per group) once to SD rats for pharmacokinetic study. The test compounds were prepared on the day of administration. The test compounds were suspended in 5% DMSO+95% saline, and then vortexed for 2 min and ultrasonicated for 5 min to prepare the administration system. The animals were fasted for 10-14 h before oral administration, and the feeding was resumed 4 h after administration. After oral administration by gavage, pharmacokinetic samples were collected from SD rats through the jugular vein. The collection time points were: before administration, 15 min, 30 min, 1 h, 2 h, 4 h, 6 h, 8 h and 24 h after administration. Three whole blood samples were collected at each time point, with a collection volume of about 0.2 mL, and anticoagulated with sodium heparin. After blood samples were collected, they were immediately placed on ice and centrifuged to separate plasma within 1 hour (centrifugation conditions: 6800 rpm, 6 min, 2-8° C.). The collected plasma was stored in a −80° C. refrigerator before analysis.

[1] = male, SD, rat, plasma, po, 100 mg/kg, 100 mg/kg, read-out: AUC
[2] = male, SD, rat, plasma, po, 100 mg/kg, 100 mg/kg, read-out: Cmax
[3] = male, SD, rat, plasma, po, 10 mg/kg, 10 mg/kg, read-out: AUC
[4] = male, SD, rat, plasma, po, 10 mg/kg, 10 mg/kg, read-out: Cmax

Structure (SMILES) | AUC [1] [ng·h/mL] | Cmax [2] [ng/mL] | AUC [3] [ng·h/mL] | Cmax [4] [ng/mL] | other results
Oc1cc(-c2ncc3c(N4CC5CCC(C4)N5)nc(OCC45CCCN4[C@@H](c4ccc(C(F)(F)F)c(Cl)c4)CC5)nc3c2F)c2c(F)c(F)ccc2c1 (mixture of isomers) [Example 215] | 471 | 128 |  |  | 
Nc1ccc(C(F)(F)F)c(-c2ncc3c(N4CC5CCC(C4)N5)nc(OCC45CCCN4[C@@H](c4ccc6c(c4)OC(F)(F)O6)CC5)nc3c2F)c1 (mixture of isomers) [Example 234] | 1190 | 182 |  |  | 
Oc1cc(-c2ncc3c(N4C[C@H]5CC[C@@H](C4)N5)nc(OCC45CCCN4C(c4ccc(C6=CCOCC6)cc4)CC5)nc3c2F)c2ccccc2c1 (stereo partly drawn) [Example 45, 4-(4-((1R,5S)-3,8-diazabicyclo[3.2.1]octan-3-yl)-2-((3-(4-(3,6-dihydro-2H-pyran-4-yl)phenyl)tetrahydro-1H-pyrrolidin-7a(5H)-yl)methoxy)-8-fluoropyrido[4,3-d]pyrimidin-7-yl)naphthalen-2-ol] |  |  |  |  | AUC (10 mg/kg): 94 ng·h/mL; Cmax (10 mg/kg): 21 ng/mL
Oc1cc(-c2ncc3c(N4CC5CCC(C4)C5(F)F)nc(OC[C@@]45CCCN4C[C@H](F)C5)nc3c2F)c2c(F)c(F)ccc2c1 [Example 86] |  |  | 52 | 21 | 
Oc1cc(-c2ncc3c(N4CC5CCC(C4)N5)nc(OCC45CCCN4C(c4ccc(OC(F)(F)F)cc4)CC5)nc3c2F)c2ccccc2c1 (stereo not shown) [Example 118] | 1290 | 115 | 224 | 31 | 
Oc1cc(-c2ncc3c(N4CC5CCC(C4)N5)nc(OCC45CCCN4C(c4ccc6occc6c4)CC5)nc3c2F)c2ccccc2c1 (stereo not shown) [Example 131] |  |  | 57 | 13 | 
Oc1cc(-c2ncc3c(N4CC5CCC(C4)N5)nc(OCC45CCCN4C(c4ccc6c(c4)OC(F)(F)O6)CC5)nc3c2F)c2ccccc2c1 (stereo not shown) [Example 132] |  |  | 240 | 29 | 
Oc1cc(-c2ncc3c(N4C[C@H]5CC[C@@H](C4)N5)nc(OCC45CCCN4C(c4ccc6c(c4)OC(F)(F)O6)CC5)nc3c2F)c2c(F)c(F)ccc2c1 (stereo partly drawn) [Example 140, 4-(4-((1R,5S)-3,8-diazabicyclo[3.2.1]octan-3-yl)-2-((3-(2,2-difluorobenzo[d][1,3]dioxy-5-yl)tetrahydro-1H-pyrrolizin-7a(5H)-yl)methoxy)-8-fluoropyridin[4,3d]pyrimidin-7-yl)-5,6-difluoronaphthalen-2-ol] |  |  |  |  | AUC (100 mg/kg): 444 ng·h/mL; Cmax (100 mg/kg): 113 ng/mL
Oc1cc(-c2ncc3c(N4C[C@H]5CC[C@@H](C4)N5)nc(OCC45CCC(c6ccc(OC(F)(F)F)cc6)N4CC4(CC4)C5)nc3c2F)c2ccccc2c1 (stereo partly drawn) [Example 143, 4-(4-((1R,5S)-3,8-diazabicyclo[3.2.1]octan-3-yl)-8-fluoro-2-((5′-(4-(trifluoromethoxy)phenyl)dihydro-1′H,3′H-spiro[cyclopropan-1,2′-pyrrolizin]-7a′(5′H)-yl)methoxy]pyrido[4,3d]pyrimidin-7-yl)naphthalen-2-ol] |  |  |  |  | AUC (10 mg/kg): 410 ng·h/mL; Cmax (10 mg/kg): 32 ng/mL
Nc1ccc(OC(F)(F)F)c(-c2ncc3c(N4CC5CCC(C4)N5)nc(OC[C@]45CCCN4C(c4ccc6c(c4)OC(F)(F)O6)CC5)nc3c2F)c1 (stereo partly drawn) [Example 163, 3-(4-((1R,5S)-3,8-diazabicyclo[3.2.1]octan-3-yl)-2-((3-(2,2-difluorobenzo[d][1,3]dioxy-5-yl)tetrahydro-1H-pyrrolizin-7a(5H)-yl)methoxy)-8-fluoropyridin[4,3d]pyrimidin-7-yl)-4-(trifluoromethoxy)] | 2750 | 388 |  |  | 
Oc1cc(-c2ncc3c(N4CC5CCC(C4)N5)nc(OCC45CCCN4C(c4ccc(C(F)(F)F)cc4)CC5)nc3c2F)c2ccccc2c1 (stereo not shown) [Example 170] |  |  | 533 | 39 | 
Oc1cc(-c2ncc3c(N4CC5CCC(C4)N5)nc(OCC45CCCN4C(c4ccc(-c6ccc(F)cc6)cc4)CC5)nc3c2F)c2c(F)c(F)ccc2c1 (stereo not shown) [Example 190] | 939 | 66 |  |  | 
Oc1cc(-c2ncc3c(N4CC5CCC(C4)N5)nc(OCC45CCCN4C(c4ccc(OC(F)(F)F)cc4)CC5)nc3c2F)c2c(F)c(F)ccc2c1 (stereo not shown) [Example 210] | 246 | 145 |  |  | 
